Experimental data from patent US12546785B2, “IL-17F and IL-17A-specific capture agents, compositions, and methods of using and making” (Regeneron Pharmaceuticals, Inc., priority 2017, dated 2026).
Entries after “also recorded” stand apart in the source; their conditions may differ. Bridge positions count the residues as written; N and C are the ends. Square brackets hold non-standard residues; d marks the D form. Triazole bridges read from a SMILES are 1,4-linked. Peptide text beside a SMILES is read from it. * marks the point of attachment. ξ: configuration not given here. Biotinyl(3aR,4R,6aS) = O=C1N[C@@H]2[C@@H](CS[C@@H]2CCCCC(=O)*)N1; X1 = O=C(CCCCC1SC[C@H]2NC(=O)N[C@@H]12)NCCCOCCOCCOCCCN*; Lys(N3) = [N-]=[N+]=NCCCC[C@H](N)C(=O)O; dThr(3ξ) = CC(O)[C@@H](N)C(=O)O; AEEEA = NCCOCCOCCOCC(=O)O; Pra = C#CC[C@H](N)C(=O)O

Legend:
[1] = biological target: T1, His-tagged IL-17F Epitope1 (C48S) (Homo sapiens, UniProt Q96PD4); test: Assay to determine orientation of macrocycle binding to IL-17F Epitope1 (point ELISA with His-tagged epitopes); details: epitope 2 μM, unscrambled
T1 construct: made in house; host or cells: chemical peptide synthesis
Method: (§1) Assay to determine orientation of macrocycle binding to IL-17F Epitope1. A black 96-well NeutrAvidin Coated High Binding Capacity plate (15510, Pierce) was coated with 2 μM macrocyclic peptide ligand in TBS (pH 7.6) for 2 h at room temperature. Biotinylated monoclonal anti-IL17F (TA319597, Origene) was coated at 4 μg/mL in TBS as a control. The plate was aspirated and then washed with TBS (5×) and Wash Buffer (0.05% (v/v) Tween-20 in PBS, 1×). Chemically synthesized His-tagged IL-17F epitopes were prepared at 2 μM in Wash Buffer and incubated in the designated microwells for 90 min at room temperature. Wash Buffer without epitope was added as a control. Microwells were aspirated and subsequently washed with Wash Buffer (10×). To detect the bound IL-17F epitopes, Alkaline Phosphatase (AP)-conjugated Anti-6X His tag® antibody [HIS-1] (ab49746, Abcam) was prepared at 1:10,000 dilution and added to the microwells for 1 h at room temperature. The plate was aspirated and washed with Wash Buffer (11×). AttoPhos® AP Fluorescent Substrate System (S1000, Promega) was employed to develop the microwells. Using an excitation wavelength of 430 nm, fluorescent emission at 535 nm was recorded by Beckman Coulter DTX880 photometer. Data are shown after subtraction of the no-epitope background.
(§2) For this experiment, the IL-17F Epitope1 was re-synthesized with a His6 assay handle and C48S substitution instead of a click handle. Two additional His-tagged IL-17F epitopes were synthesized to contain strategic scrambling of the sequences either N-terminal or C-terminal to C48S (scrambled residues are shown in italics): • 1) His6-PEG3-[…] (SEQ ID NO:39); • 2) His6-PEG3-[…] (scrambled C-terminal to click handle; SEQ ID NO:40); • 3) His6-PEG3-[…] (scrambled N-terminal to click handle; SEQ ID NO:41).
(§3) In anticipation of forming a biligand with LF2 (SEQ ID NO: 28), it was important to gain insight on whether LF1 (SEQ ID NO:9) preferentially binds to the N- or C-terminus of Epitope1. Therefore, two His-tagged IL-17F epitopes were generated, scrambling the sequence either N-terminal or C-terminal to the location of the azide click handle. His6 assay handle and C48S substitution instead of a click handle. The scrambled amino acids are shown in italics. MALDI-TOF MS (m/z): calculated for C116H163N37O31 (M+H) 2571.23; found 2571.57.

[2] = tested on: His-tagged IL-17F Epitope1 (C48S); test: as above; details: epitope 2 μM
Method: as §1, §2, §3

IL-17F protein [3] = biological target: T2, IL-17F protein (Homo sapiens, UniProt Q96PD4); test: Fluorescence polarization titration in solution; type: binding
T2 construct: His tag
T2 sequence (Q96PD4 31-163): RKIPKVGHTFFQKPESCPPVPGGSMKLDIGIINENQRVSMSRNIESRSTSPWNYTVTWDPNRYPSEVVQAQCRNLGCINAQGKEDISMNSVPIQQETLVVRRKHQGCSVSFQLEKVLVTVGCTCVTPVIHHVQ
Method: The bonding affinities of the macrocycles were tested in solution by titrating the recombinant human IL-17F protein against fluorescein 5-isothiocyanate (5-FITC)-tagged macrocycles by fluorescence polarization. […] The structure of LA3 (SEQ ID NO:44), the lead macrocycle developed against IL-17A Epitope3, is shown below (X=PEG3-biotin). MALDI-TOF MS (m/z): calcd. for C62H98N22O13S (M+H) 1391.74; found 1392.36.

[4] = biological target: T3, full-length His-tagged IL-17F protein (Homo sapiens, UniProt Q96PD4); test: Sandwich ELISA: IL-17F captured by ligand immobilized on NeutrAvidin plate; type: binding; details: for binding affinity compared, in words: sandwich ELISA, IL-17F
T3 construct: Full-length His-tagged IL-17F protein (ab167911, Abcam) was serially diluted in Wash Buffer; purchased Abcam ab167911
T3 sequence (Q96PD4 31-163): T2 sequence (Q96PD4 31-163)
Method: Sandwich ELISA. A black 96-well NeutrAvidin Coated High Binding Capacity plate (15510, Pierce) was coated with 2 μM macrocyclic peptide ligand in TBS (25 mM Tris-HCl, 150 mM NaCl, pH 7.6) for 2 h at room temperature. Biotinylated monoclonal anti-IL17F (TA319597, Origene) was coated at 4 μg/mL in TBS as a control. The plate was aspirated and then washed with TBS (5×) and Wash Buffer (0.05% (v/v) Tween-20 in PBS, 1×). Full-length His-tagged IL-17F protein (ab167911, Abcam) was serially diluted in Wash Buffer (from 800 to 0 nM) and incubated in the designated microwells for 90 min at room temperature. Microwells were aspirated and subsequently washed with Wash Buffer (10×). To detect the bound IL-17F protein, Alkaline Phosphatase (AP)-conjugated Anti-6X His tag® antibody [HIS-1] (ab49746, Abcam) was prepared at 1:10,000 dilution and added to the microwells for 1 h at room temperature. The plate was aspirated and washed with Wash Buffer (11×). AttoPhos® AP Fluorescent Substrate System (S1000, Promega) was employed to develop the microwells. Using an excitation wavelength of 430 nm, fluorescent emission at 535 nm was recorded by Beckman Coulter DTX880 photometer. Titration curves were fit using a four-parameter regression curve fitting program (Origin 8.5) to determine EC50 values.
(§4) For these assays, a dilution series of full-length His-tagged IL-17F protein was captured using the macrocyclic peptide ligands immobilized on a NeutrAvidin-coated plate.
Sandwich ELISA. These assays were performed using the same protocol that was used to evaluate the IL-17F Epitope1 targeted ligands.
as §4

IL-17F protein [5] = biological target: T2, IL-17F protein; test: IL-17F binding in a background of human serum, surface-immobilized ligand; details: up to 10% (v/v) serum
Text: Binding to IL-17F in 25% (v/v) serum is also detectable.
Target binding in biologically complex samples was interrogated by contacting surface-immobilized macrocycles with IL-17F protein in a background of human serum.

trypsin = test: Trypsin protease digestion, analytical HPLC; type: in vitro ADME; details: trypsin 1 h at 37° C., analytical HPLC at 215 nm
Method: Bi-LF Biotin-PEG3-Cy(RSYNKX1X2) (SEQ ID NO:102)-PEG3-Cy(RRATSX1X2) (SEQ ID NO:83) (X1=azidolysine and X2=propargylglycine) was incubated with trypsin to study its susceptibility to protease digestion. Trypsin can cleave peptides and proteins on the C-terminal side of lysine and arginine L-amino acids. For this assay, test compounds were treated with trypsin protease (1 h at 37° C.) or left untreated as a control. In an Eppendorf tube, 4 μL of trypsin solution (10 μg/mL in 1 mM HCl) and 80 pmol of biligand were added to TBS for a final volume of 20 μL. The solution was incubated for 1 h at 37° C., and then further diluted with 80 μL TBS. 50 μL of each sample was injected into a Dionex Ultimate 3000 series analytical HPLC fitted with a Phenomenex Luna-C18 column, and eluted with a gradient of 10%-62% acetonitrile in 0.1% TFA (v/v) in water over 45 min. The samples were monitored at 215 nm.

Kd (IL-17F protein [3]; 5-FITC-tagged macrocycles, in solution) | standard Gibbs free energy change (ΔG°=RTlnKD) of binding to IL-17F (IL-17F protein [3]; 25° C.) | Kd ([4]; against His-tagged IL-17F) | EC50 ([4]; surface-immobilized ligand, dilution series of His-tagged IL-17F) | IL-17F binding efficiency in human serum (IL-17F protein [5]) | SMILES | ELISA signal for His-tagged IL-17F Epitope1 (C48S) [1] | ELISA signal for epitope scrambled C-terminal to click handle [2] | binding to epitope scrambled N-terminal to click handle [2] | binding affinity compared, in words [4] | susceptibility to trypsin digestion (trypsin)
 |  |  |  |  | C[C@@H]1NC(=O)[C@H](CCCNC(=N)N)NC(=O)[C@H](CCCNC(=N)N)NC(=O)[C@@H](N)Cc2cn(nn2)CCCC[C@@H](C(=O)NCCCOCCOCCOCCCNC(=O)CCCCC2SC[C@H]3NC(=O)N[C@@H]23)NC(=O)[C@H](CO)NC(=O)[C@H](CCC(N)=O)NC1=O (some centres unmarked) [Cy(RRAQSX1X2), Cy(RRAQSX1X2)-PEG3-biotin] (H-[Pra]RRAQS[Lys(N3)]-X1; triazole 1-7) | positive ELISA signals | positive ELISA signals | Binding was destroyed |  | 
28 ± 9 nM | -10.3 kcal/mol | 15 nM | 15 ± 5 nM | reduced intensity | C=C1N[C@@H](CCCCN)C(=O)N[C@H](C(N)=O)CCCCn2cc(nn2)C[C@H](NC(=O)COCCOCCOCCNC(=O)CCCC[C@@H]2SC[C@@H]3NC(=O)N[C@@H]32)C(=O)N[C@@H](CCCNC(=N)N)C(=O)N[C@@H](CO)C(=O)N[C@@H](Cc2ccc(O)cc2)C(=O)N[C@H]1CC(N)=O [Cy(RSYNKX1X2), Biotin-PEG3-Cy(RSYNKXIX2)] |  |  |  | exceeds the binding affinity of the similarly assayed biotinylated monoclonal anti-IL17F | 
 |  |  |  |  | CC(O)[C@H]1NC(=O)[C@@H](C)NC(=O)[C@@H](CCCNC(=N)N)NC(=O)[C@@H](CCCNC(=N)N)NC(=O)[C@@H](NC(=O)COCCOCCOCCNC(=O)[C@@H]2CCCCn3cc(nn3)C[C@H](NC(=O)COCCOCCOCCNC(=O)CCCC[C@H]3SC[C@H]4NC(=O)N[C@H]43)C(=O)N[C@H](CCCNC(=N)N)C(=O)N[C@H](CO)C(=O)N[C@H](Cc3ccc(O)cc3)C(=O)N[C@H](CC(N)=O)C(=O)N[C@H](CCCCN)C(=O)N2)Cc2cn(nn2)CCCC[C@@H](C(N)=O)NC(=O)[C@@H](CO)NC1=O (stereo partly drawn) [Bi-LG, Biotin-PEG3-Cy(rsynkX1X2)-PEG3-Cy(rratsX1X2)] ({Biotinyl(3aR,4R,6aS)-AEEEA}-[Pra][dR][dS][dY][dN][dK][Lys(N3)][AEEEA][Pra][dR][dR][dA][dThr(3ξ)][dS][Lys(N3)]-NH2; triazole 1-7, 9-15) |  |  |  | slightly weaker binding | resistance to trypsin digestion; also recorded: resistant to trypsin digestion
